# “Also recorded” adds a separate entry of the source.
# How the values were obtained:
# [1] = biological target: α1-adrenoceptor (3H-prazosin binding sites); assay: displacement of 3H-prazosin from rat cerebral cortical (brain) membranes; details: for -logIC50: 3H-prazosin displacement, rat cerebral cortical membranes; for affinity to alpha1-adrenoceptors (in words): discussion of Table 1
# Description: IC50 values and apparent Ki values were determined as in Table 1.
# Rat brain cortices were homogenized in approximately 30 volumes/wet weight of 50 mM Tris buffer, pH 7.4, containing 10 mM MgCl2 by use of a Polytron (setting 6 for 10 seconds). It should be noted that this buffer was used throughout the experimental procedures. The homogenate was centrifuged at 48,000×g for 10 minutes in a Sorvall RC-5B centrifuge. The resulting pellet was resuspended in buffer by use of a Polytron and recentrifuged. This process was repeated and the pellet was resuspended in approximately 200 volumes for affinity studies or 20 volumes for irreversibility experiments.
# Specific binding was defined as the difference between total binding (measured in the absence of any ligand) and non-specific binding (measured in the presence of 10 microM phentolamine). Duplicate tubes were used for each condition. Reaction tubes were incubated for 30 minutes at 30° C., then diluted to 5 ml with ice cold buffer, and filtered under reduced pressure through Whatman GF/C glass fiber filters. The reaction tubes and filters were washed three additional times with buffer.
# [2] = test system: α1-adrenoceptor (3H-prazosin binding sites); assay: irreversibility experiment: membranes preincubated with compound, washed, assayed for saturation of 3H-prazosin binding; design: species or system rat; details: for irreversible blockade / effect on 3H-prazosin binding sites (in words): membranes, preincubation and washing
# [3] = test system: spontaneously hypertensive rats; details: conscious; previously shown; cited from earlier work
# [4] = test system: alpha1-adrenoceptors and other receptors; details: prior art, cited from earlier work
Compound,-logIC50 [1],affinity to alpha1-adrenoceptors (in words) [1],also measured
COc1cc2nc(N3CCN(C(=S)Nc4ccccc4)CC3)nc(N)c2cc1OC [Compound 29],,much higher affinity for alpha1 -adrenoceptors than prazosin,
COc1cc2nc(N3CCN(C(=S)NC4CCCCC4)CC3)nc(N)c2cc1OC [Compound 30],8.27,decrease,
COc1cc2nc(N3CCN(C(=S)Nc4c(F)c(F)c(F)c(F)c4F)CC3)nc(N)c2cc1OC [Compound 32],7.80,,
COc1cc2nc(N3CCN(C(=S)Nc4ccc(N=C=S)cc4)CC3)nc(N)c2cc1OC [Compound 34],7.18,,
COc1cc2nc(N3CCN(C(=S)Nc4cccc(N=C=S)c4)CC3)nc(N)c2cc1OC [Compound 35],7.30,,
COc1cc2nc(N3CCN(C(=O)c4ccc(N=C=S)c(I)c4)CC3)nc(N)c2cc1OC [Compound 41],7.29,much lower affinity,
COC(=O)/C=C/C(=O)Nc1ccc(CCCCC(=O)N2CCN(c3nc(N)c4cc(OC)c(OC)cc4n3)CC2)cc1 [Compound 42],8.07,,
COc1cc2nc(N3CCN(C(=O)C4=CC5CCC4CC5)CC3)nc(N)c2cc1OC [Compound 48],8.4,,overall behaviour compared with compound 47 [2]: behaves similarly to 47 in those aspects which were investigated
"CCOC(=O)N1c2ccccc2C=CC1OCC (centres unmarked) [N-ethoxycarbonyl-2-ethoxy-1,2-dihydroquinoline]",,,"concentration required relative to more specific chemoreactive labels ([4]; factor higher): about 10^4; receptor specificity (in words) [4]: receptor specificity of N-ethoxycarbonyl-2-ethoxy-1,2-dihydroquinoline is also low"
"CC(COc1ccccc1)N(CCCl)Cc1ccccc1 (centres unmarked) [phenoxybenzamine, reference compound]",,,"receptor specificity (in words) [4]: not very specific; Kd (KD) of remaining 3H-prazosin binding sites (in words) ([2]; after preincubation and washing): without significant Kd changes in the remaining sites; blockade of 3H-prazosin binding sites by phenoxybenzamine ([2]; brain membranes, FIG. 4): approximately 85%; irreversible blockade / effect on 3H-prazosin binding sites (in words) [2]: block almost all ^3 -prazosin binding sites in brain membranes"
c1c[nH]c(CNCCCCCCNCCSSCCNCCCCCCNCc2ccc[nH]2)c1 [pyrextramine],,,receptor specificity (in words) [4]: block peripheral alpha2 -adrenergic responses as well

# Now from value to compound, other results behind:
-logIC50 [1],affinity to alpha1-adrenoceptors (in words) [1],Compound,also measured
8.81,high affinity,C/C=C/C=C/C(=O)N1CCN(c2nc(N)c3cc(OC)c(OC)cc3n2)CC1 [Compound 6],irreversible blockade / effect on 3H-prazosin binding sites (in words) [2]: did not irreversibly block alpha1 -adrenoceptors; also recorded: do not attach irreversibly to the receptor
9.16,,COc1cc2nc(N3CCN(C(=O)/C=C/c4ccccc4)CC3)nc(N)c2cc1OC [Compound 9],reduction of blood pressure in spontaneously hypertensive rats [3]: capable of reducing blood pressure; irreversible blockade / effect on 3H-prazosin binding sites (in words) [2]: do not attach irreversibly to the receptor
8.62,,COc1cc2nc(N3CCN(C(=S)Nc4ccc(F)cc4)CC3)nc(N)c2cc1OC [Compound 31],
7.70,decrease,COc1cc2nc(N3CCN(C(=S)Nc4ccc(N=[N+]=[N-])cc4)CC3)nc(N)c2cc1OC [Compound 33],
7.01,,COc1cc2nc(N3CCN(C(=S)Nc4ccc(NC(=S)N5CC5)cc4)CC3)nc(N)c2cc1OC [Compound 36],
7.43,,COC(=O)C=Cc1ccc(NC(=S)N2CCN(c3nc(N)c4cc(OC)c(OC)cc4n3)CC2)cc1 [Compound 37],
7.41,,COc1cc2nc(N3CCN(C(=S)Nc4cccc5ccccc45)CC3)nc(N)c2cc1OC [Compound 38],
7.56,considerably decreased the affinity,COc1cc2nc(N3CCN(C(=O)Nc4ccccc4)CC3)nc(N)c2cc1OC [Compound 39],
7.93,,COc1cc2nc(N3CCN(C(=O)c4cccc(CCl)c4)CC3)nc(N)c2cc1OC [Compound 40],
7.94,low affinity,COc1cc2nc(N3CCN(S(=O)(=O)c4ccc(C)cc4)CC3)nc(N)c2cc1OC [Compound 43],
7.47,low affinity,COc1cc2nc(N3CCN(S(=O)(=O)c4cccs4)CC3)nc(N)c2cc1OC [Compound 44],
7.49,failed to yield an active compound,COc1cc2nc(N3CCN(C(=O)c4cc(Cl)nc(Cl)n4)CC3)nc(N)c2cc1OC [Compound 45],
8.61,high affinity,COc1cc2nc(N3CCN(C(=O)C4CC5C=CC4C5)CC3)nc(N)c2cc1OC (centres unmarked) [Compound 46],

# — patent US5110927A (The United States of America as represented by the …, priority 1987, dated 1992)
